According to US9468209B2, “Method for eradicating weeds with derivatives of 3-acetyl-5-sec-butyl-4-hydroxy-3-pyrrolin-2-one” (priority 2012, dated 2016):

What was measured:
Crofton weed [1] = experiment: Spray on leaves and stems of three-leaf-stage Crofton weed seedlings grown in pots in a greenhouse; type: in vivo; design: key: 4: Plant completely dead; 3: Two thirds of the plant stems and leaves dried out; 2: Half of the plant stems and leaves dried out; 1: One third of the plant stems and leaves dried out; 0: No damage at all; conditions: 50 μg/mL spray, assessed two days later
Method: Compounds 1, 2, 3, and 40 were separately dissolved in a small amount of methanol. The solutions were then diluted with distilled water to a concentration of 50 μg/mL. A mixture of methanol and water in the same ratio as the sample solution was also prepared and used as control in the experiment. The solutions were sprayed on leaves and stems of three-leaf-stage Crofton weed seedlings. All the plants were grown in pot in a greenhouse. The leaves were properly wet by the solutions for consistency and the treatment was repeated 3 times. The measurement of the plant damage was calculated by the formula: Damage Index=Σ(damage level×number of plants)×100/4/number of plants in each treatment.

Crofton weed [2] = experiment: Needle puncture pathogenic test on slightly wounded leaf of Crofton weed; type: in vivo; conditions: Crofton weed leaf; for Avg. diameter of the spot after 24 h / Time of disease spot to occur: analogs with formula (I) and (II); for Time of Disease spot / Average diameter of spot after 24 h: 50 μg/mL, 25° C., natural light
Method: 3-acetyl-5-sec-butyl-4-hydroxy-3-pyrrolin-2-one analogs were dissolved in a small amount of methanol and diluted with water to a concentration of 5-100 μg/g. A pathogenic test was conducted by placing the toxic liquid on the slightly wounded leaf of Crofton weed with a needle. The test has shown that the pathogenic capability of 3-acetyl-5-sec-butyl-4-hydroxy-3-pyrrolin-2-one analogs with respect to Crofton weed increases with the increase of concentration. The spot diameter caused on the leaf of Crofton weed after 24 hours was 2 mm at 50 μg/g.
3-acetyl-5-sec-butyl-4-hydroxy-3-pyrrolin-2-one analogue (Table 3, compounds 10-57) was dissolved in small amount of methanol. The solution was then diluted with distilled water to a concentration of 50 μg/mL. Methanol solution with same concentration and pure distilled water were used as control of the experiment. A pathogenic test was conducted by placing the toxic liquid on the slightly wounded leaf of Crofton weed with a needle. The experiment was carried out at 25° C. under the natural light and each test was repeated 6 times. It was measure the diameter of the spot after 24 h. […] The size of the side chain also has an effect on their activity.
Fourteen salts of 3-acetyl-5-sec-butyl-4-hydroxy-3-pyrrolin-2-one analogs were dissolved in small amount of methanol and diluted with distilled water to a concentration of 50 μg/mL. Methanol/water mixture was also prepared and used as control. Needle puncture method was used for the test on the small pieces of Crofton weed. Each treatment was repeated six times or more. The test samples were kept under natural light at 25° C. for 24 hours. The diameters of damaged spot of the plant leaves were measured by vernier caliper.

Crofton weed [3] = experiment: Needle puncture test on Crofton weed with washes recovered from compound-treated soil; type: in vivo; conditions: after soil treatment (3 hours)
Method: Compounds 1, 2, 3, and 40 were dissolved in small amount of methanol and diluted with distilled water to concentration of 50 μg/mL. The solution was sprayed to the soil sample until the soil was wet but not overflows. After standing at room temperature for 3 hours, the soil sample was washed with water and methanol. The wash solution was collected and concentrated. Such process was repeated three times. The concentrated solutions were used for herbicidal activity test using the method of needle puncture on Crofton weed. Methanol water solution and pure water were used as control. The experiment for every sample was repeated six times. The spot diameters were measured with vernier caliper after the plant was kept under natural light at 25° C. for 24 hours (Table 11).

Hill reaction [4] = experiment: Hill reaction activity of treated Crofton weed leaves; type: biochemical; conditions: 50 μg/mL, strong light 12 hours
Method: (§1) Compounds 10-57 were dissolved in small amount of methanol. The solutions were then diluted with distilled water to a concentration of 50 μg/mL. A mixture of methanol and water in the same ratio as the sample solution was also prepared and used as control in the experiment. The healthy leaves of Crofton weed were washed in water for 30 minutes and then rinsed with distilled water. The clean and tissue dried leaves were placed in petri dish with the back-side of the leaves facing up. Wet filter paper was also placed in the in petri dish for moisture control. Water, methanol and chemical solutions of the analogues were applied to the back-side of each leaf. Test sample was then placed in vacuum chamber at 25° C. for 15 min followed by exposure to the strong light (400 μM m^−2 s^−1) for 12 hours. The leaf sample went through a series of test, and the Hill reaction rate, the electron transfer activity and fluorescence of chlorophyll were measured. Four leaves were used for each treatment and each test was repeated three times.

[5] = tested on: fluorescence of chlorophyll; experiment: Fluorescence of chlorophyll of treated Crofton weed leaves; type: biochemical; conditions: 50 μg/mL, strong light 12 hours
Method: as §1

photosystem II = experiment: PSII oxygen evolution / electron transfer activity of treated Crofton weed leaves; type: biochemical; conditions: 50 μg/mL, strong light 12 hours
Method: as §1

[6] = tested on: monocotyledon weeds (such as common crabgrass and barnyardgrass) and dicotyledonous weeds including Crofton weeds; conditions: concentration of 50 μg/mL; cited from earlier work
Hill reaction [7] = conditions: versus 3-(3,4-dichlorophenyl)-1,1-dimethylurea (DCMU); cited from earlier work
rat = conditions: called moderate toxicity; cited from earlier work

CCC(C)C1NC(=O)C=C1O (stereo not shown) [Compound 3]
Damage level (Crofton weed [1]): 1
Avg. diameter of the spot after 24 h (Crofton weed [2]): 2.31 ± 0.09 mm
Time of disease spot to occur (Crofton weed [2]): 20.9 ± 1.01 h
Average diameter of the spot after 24 h, H2O wash (Crofton weed [3]): 0.273 ± 0.062 mm
Average diameter of the spot after 24 h, Methanol wash (Crofton weed [3]): 0.334 ± 0.082 mm
Activity of Hill Reaction (Hill reaction [4]): 62.21 uMO2/mgChlh
Fv/Fm [5]: 0.83
PSII Activity of oxygen evolution (photosystem II): 32.14 uMO2/mgChlh

CCCC(Cl)C1NC(=O)CC1=O (stereo not shown) [Compound 2]
Damage level (Crofton weed [1]): 2
Avg. diameter of the spot after 24 h (Crofton weed [2]): 2.96 ± 0.01 mm
Time of disease spot to occur (Crofton weed [2]): 22.0 ± 2.30 h
Average diameter of the spot after 24 h, H2O wash (Crofton weed [3]): 0.280 ± 0.030 mm
Average diameter of the spot after 24 h, Methanol wash (Crofton weed [3]): 0.362 ± 0.012 mm
Activity of Hill Reaction (Hill reaction [4]): 69.41 uMO2/mgChlh
Fv/Fm [5]: 0.84
PSII Activity of oxygen evolution (photosystem II): 37.02 uMO2/mgChlh

CCC(C)C1NC(=O)CC1=O (stereo not shown) [Compound 1]
Damage level (Crofton weed [1]): 2
Avg. diameter of the spot after 24 h (Crofton weed [2]): 1.97 ± 0.04 mm
Time of disease spot to occur (Crofton weed [2]): 22.3 ± 0.77 h
Average diameter of the spot after 24 h, H2O wash (Crofton weed [3]): 0.223 ± 0.077 mm
Average diameter of the spot after 24 h, Methanol wash (Crofton weed [3]): 0.292 ± 0.041 mm
Activity of Hill Reaction (Hill reaction [4]): 98.76 uMO2/mgChlh
Fv/Fm [5]: 0.82
PSII Activity of oxygen evolution (photosystem II): 50.89 uMO2/mgChlh

CCCC1NC(=O)C(C(C)=O)=C1O (stereo not shown) [Compound 13]
Time of Disease spot (Crofton weed [2]): 16.70 ± 0.21 h
Average diameter of spot after 24 h (Crofton weed [2]): 5.21 ± 0.44 mm
Activity of Hill Reaction (Hill reaction [4]): 78.19 uMO2/mgChlh
Fv/Fm [5]: 0.85
PSII Activity of oxygen evolution (photosystem II): 41.35 uMO2/mgChlh

CCC(C)C1NC(=O)C(C(C)=O)=C1O (stereo not shown) [3-acetyl-5-sec-butyl-4-hydroxy-3-pyrrolin-2-one]
killing monocotyledon and dicotyledonous weeds [6]: very effective
inhibition to Hill reaction compared with DCMU (Hill reaction [7]): much higher than the typical photosynthetic inhibitor
toxicity to rat (rat): 200 mg/kg

CCCC(c1ccccc1)C1NC(=O)C(C(C)=O)=C1O (stereo not shown) [Compound 20]
Time of Disease spot (Crofton weed [2]): 21.1 ± 3.56 h
Average diameter of spot after 24 h (Crofton weed [2]): 1.57 ± 0.04 mm
Activity of Hill Reaction (Hill reaction [4]): 57.23 uMO2/mgChlh
Fv/Fm [5]: 0.82
PSII Activity of oxygen evolution (photosystem II): 43.40 uMO2/mgChlh
